From EP1806348A2, “Pyrido (2,3-D)Pyrimidines as inhibitors of cellular proliferation” (Warner-Lambert Company LLC, priority 1997, dated 1998)

Assays:
[1] = target: cdk2/cyclinE (Homo sapiens, UniProt P24941); experiment: Cyclin-dependent kinase assay (cdk2/cyclinE); type: biochemical; conditions: Table 1; read-out: cdk2/E IC50
Method: (§1) All components except the ATP were added to the wells, and the plate was placed on a plate mixer for 2 minutes. […] The reaction was terminated by addition of 0.1 mL of 20% TCA. The plate was kept at 4°C for at least 1 hour to allow the substrate to precipitate. The wells were then washed five times with 0.2 mL of 10% TCA and ^32P incorporation determined with a beta plate counter (Wallac Inc., Gaithersburg, MD).

[2] = target: c-Src (Homo sapiens, UniProt P12931); experiment: c-Src protein kinase assay; type: biochemical; conditions: Table 5
Sequence of c-Src (P12931 whole entry, the tested form may be a part): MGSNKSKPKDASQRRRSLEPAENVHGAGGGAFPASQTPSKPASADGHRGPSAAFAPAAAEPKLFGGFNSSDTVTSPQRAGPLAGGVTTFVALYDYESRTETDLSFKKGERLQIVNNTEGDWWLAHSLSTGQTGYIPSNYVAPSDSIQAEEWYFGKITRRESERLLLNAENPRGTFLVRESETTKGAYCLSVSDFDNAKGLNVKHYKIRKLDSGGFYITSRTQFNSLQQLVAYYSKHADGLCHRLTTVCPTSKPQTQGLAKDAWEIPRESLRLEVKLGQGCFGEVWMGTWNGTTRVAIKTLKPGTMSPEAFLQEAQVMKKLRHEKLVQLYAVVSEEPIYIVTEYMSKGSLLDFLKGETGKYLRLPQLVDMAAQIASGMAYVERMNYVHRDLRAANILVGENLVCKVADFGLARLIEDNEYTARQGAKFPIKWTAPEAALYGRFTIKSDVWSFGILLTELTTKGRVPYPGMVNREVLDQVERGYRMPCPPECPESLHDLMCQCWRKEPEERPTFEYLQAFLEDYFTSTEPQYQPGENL
Method: C-Src kinase was purified from baculovirus infected insect cell lysates using an antipeptide monoclonal antibody directed against the N-terminal amino acids (amino acids 2-17) of c-Src. The antibody, covalently linked to 0.65 µm latex beads, was added to a suspension of insect cell lysis buffer comprised of 150 mM NaCl, 50 mM Tris pH 7.5, 1 mM DTT, 1% NP-40,2 mM EGTA, 1 mM sodium vanadate, 1 mM PMSF, 1 µg/mL each of leupeptin, pepstatin, and aprotinin. Insect cell lysate containing c-Src protein was incubated with these beads for 3 to 4 hours at 4°C with rotation. At the end of the lysate incubation, the beads were rinsed three times in lysis buffer, resuspended in lysis buffer containing 10% glycerol, and frozen. These latex beads were thawed, rinsed three times in assay buffer (40 mM Tris, pH 7.5, […]) and suspended in the same buffer. In a Millipore 96-well plate with a 0.65 µm polyvinylidine membrane bottom were added the reaction components: 10 µL c-Src beads, 10 µL of 2.5 mg/mL poly GluTyr substrate, 5 µM ATP containing 0.2 µCi labeled ^32P-ATP, 5 µL DMSO containing inhibitors or as a solvent control, and buffer to make the final volume 125 µL. The reaction was started at room temperature by addition of the ATP and quenched 10 minutes later by the addition of 125 µL of 30% TCA, 0.1 M sodium pyrophosphate for 5 minutes on ice. […] The filters were then punched, counted in a liquid scintillation counter, and the data examined for inhibitory activity in comparison to a known inhibitor such as erbstatin. […]

[3] = target: cdc2/cyclinB (Homo sapiens, UniProt P06493); experiment: Cyclin-dependent kinase assay (cdc2/cyclinB); type: biochemical; conditions: Table 1; read-out: cdk1/B IC50
Sequence of cdc2/cyclinB (P06493 whole entry): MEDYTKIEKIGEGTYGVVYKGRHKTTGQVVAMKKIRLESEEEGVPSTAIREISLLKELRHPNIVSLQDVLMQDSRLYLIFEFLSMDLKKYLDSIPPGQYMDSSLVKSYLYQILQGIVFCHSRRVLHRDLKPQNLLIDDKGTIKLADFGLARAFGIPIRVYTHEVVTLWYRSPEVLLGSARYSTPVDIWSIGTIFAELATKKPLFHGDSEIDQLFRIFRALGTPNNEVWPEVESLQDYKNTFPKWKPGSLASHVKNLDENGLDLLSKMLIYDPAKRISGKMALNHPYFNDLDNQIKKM
Sequence of cdc2/cyclinB (P14635 whole entry, further chain): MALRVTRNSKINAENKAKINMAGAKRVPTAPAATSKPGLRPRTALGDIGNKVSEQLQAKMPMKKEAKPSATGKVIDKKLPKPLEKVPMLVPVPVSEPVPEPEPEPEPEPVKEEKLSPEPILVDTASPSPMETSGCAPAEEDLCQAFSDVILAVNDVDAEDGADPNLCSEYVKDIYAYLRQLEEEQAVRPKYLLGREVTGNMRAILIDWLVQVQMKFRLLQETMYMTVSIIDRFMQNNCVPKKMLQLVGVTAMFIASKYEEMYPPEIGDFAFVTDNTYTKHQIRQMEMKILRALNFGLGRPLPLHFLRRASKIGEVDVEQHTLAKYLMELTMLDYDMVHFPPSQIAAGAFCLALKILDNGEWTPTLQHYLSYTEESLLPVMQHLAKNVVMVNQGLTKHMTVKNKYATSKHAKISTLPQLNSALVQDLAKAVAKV
Method: as §1

[4] = target: cdk2/cyclinA (Homo sapiens, UniProt P24941); experiment: Cyclin-dependent kinase assay (cdk2/cyclinA); type: biochemical; conditions: Table 1
Method: as §1

[5] = Plasma levels in mice after dosing; type: in vivo, nude mice; conditions: at 30 minutes following dosing
Method: For example, the compound of Example 60 was administered orally at 5 mg/kg to mice, and plasma levels of about 200 nM were measured at 30 minutes following dosing. The compound was also administered intraperitoneally at 12 mg/kg and produced a peak plasma concentration of 10,000 nM at 30 minutes following dosing.

[6] = system: MCF-7 human mammary tumor xenografts; experiment: MCF-7 tumor xenograft growth inhibition in mice; type: in vivo, female nude mice; conditions: doses of 5 to 20 mg/kg, schedule q12h × 2; days 1-14
[7] = target: cdk4/D (Homo sapiens, UniProt P11802); experiment: Cyclin-dependent kinase 4 (cdk4) enzyme assay, 32P incorporation into retinoblastoma; type: biochemical; conditions: Table 1; 25 µM ATP, retinoblastoma substrate
Sequence of cdk4/D (P11802 whole entry): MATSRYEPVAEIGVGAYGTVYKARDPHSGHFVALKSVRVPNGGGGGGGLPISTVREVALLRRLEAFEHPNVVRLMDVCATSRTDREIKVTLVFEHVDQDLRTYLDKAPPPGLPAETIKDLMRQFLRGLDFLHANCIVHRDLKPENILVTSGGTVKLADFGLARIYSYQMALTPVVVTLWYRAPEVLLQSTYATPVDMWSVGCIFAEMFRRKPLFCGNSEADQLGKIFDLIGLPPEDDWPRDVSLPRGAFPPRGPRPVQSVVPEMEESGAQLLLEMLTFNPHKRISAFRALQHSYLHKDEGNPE
Sequence of cdk4/D (P24385 whole entry, further chain): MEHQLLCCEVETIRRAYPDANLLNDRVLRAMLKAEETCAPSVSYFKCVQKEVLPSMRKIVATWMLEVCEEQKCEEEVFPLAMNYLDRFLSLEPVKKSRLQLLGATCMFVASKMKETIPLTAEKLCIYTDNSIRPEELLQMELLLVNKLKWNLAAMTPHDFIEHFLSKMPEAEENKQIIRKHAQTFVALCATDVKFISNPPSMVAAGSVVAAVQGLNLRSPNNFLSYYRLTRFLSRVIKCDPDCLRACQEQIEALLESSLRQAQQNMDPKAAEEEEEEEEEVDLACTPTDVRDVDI
Method: A typical assay, for instance, measures inhibitory activity against the cyclin D dependent kinase 4 enzyme (cdk4/D). […] The cdk 4 assay was carried out as follows.
as §1, with “trichloroacetic acid (TCA).” for “TCA.”, “incorporation was” for “incorporation”

- IC50 [1]: 0.27 µM
- IC50 [2]: 0.89 µM
- IC50 [3]: 0.675 µM
- IC50 [4]: 0.058 µM
- peak plasma concentration ([5]; intraperitoneally at 12 mg/kg): 10,000 nM
- concentration at 30 min ([5]; nude, mouse, plasma, po, mice, orally at 5 mg/kg): ~0.2 µM
- IC50 [7]: 0.032 µM
SMILES: CC(C)n1c(=O)ccc2cnc(Nc3ccc(N4CCN(C)CC4)cc3)nc21 [Example 60, 8-Isopropyl-2-[4-(4-methylpiperazin-1-yl)-phenylamino]-8H-pyrido[2,3-d]pyrimidin-7-one]
- tumor growth inhibitions [6]: statistically insignificant tumor growth inhibitions
